From US20090097026A1, “COLOR MEASUREMENTS OF RECONSTITUTED TIGECYCLINE AND DEGRADANT THEREOF” (Wyeth, priority 2007, published 2009)

How the values were obtained:
[1] = Color value of reconstituted tigecycline and tigecycline API spiked with Compound I; type: physicochemical; conditions: spiked into reconstituted tigecycline and tigecycline API; visual observation
Experimental: The spiking concentrations required to produce a clear color change in tigecycline (tigecycline for injection 50 mg/vial (lactose formulation)) was characterized using both a Hunterlab UltraScan XE color spectrophotometer and a quantitative HPLC method. The threshold for visual green color resulting from spiking with Compound I colored degradant was determined for each category of tigecycline samples. An excellent linear correlation (R>0.99) between the concentration of Compound I and the calculated color value is observed. The spiking of tigecycline with ca. 0.045 concentration Compound I results in observation of a slightly green color in the reconstituted tigecycline and tigecycline API. This green color is more pronounced at the higher Compound I concentration. Tables 1, 2, 3 and 4 summarize the calculated color values and HPLC results for tigecycline Registration stability batches (CR0040-50-01, CR0040-50-02, CR0040-50-03), validation stability batches (B41133, B41404, B41710) and API used in the validation stability batches (3000002665, 2000140691, 2000140693). As per the color methods employed the calculated color value is calculated from the measured CIEL*a*b* values using the equation below:
Calculated Color Value=2.19×L*+2.59×a*−0.48×b*
The samples were tested immediately after reconstitution according to the label directions (5.3 ml of 0.9% saline). […]

[2] = Stability / oxidative degradation observations; type: physicochemical; conditions: result in words
Source text: Compound I was isolated from forced degradation samples of tigecycline and is unstable. This blue compound was characterized by LC-MS/MS and NMR as an iminoquinone derivative of tigecycline, an oxidative degradant with a positive ionic formula of C29H38N5O10 formed when tigecycline is exposed to air for twenty-four hours. A linear correlation (R>0.99) between the concentration of Compound I and the calculated color value was discovered. In substantially pure form, Compound I is useful as a test standard for determining the concentration of Compound I in a sample of Tigecycline. Compound I may be obtained in substantially pure form from the compound Tygecycline according to the following method: Tygecycline is degraded at room temperature by dissolving it in water open to air and stirring for a few hours until the solution changes color from yellow/orange to dark green. […]
Compound I was studied by NMR spectroscopy as well. […] A highly intense singlet peak at δH 3.59 was assigned to methyl protons of the C-7 dimethyl amino group, and their associated carbons were detected at δC 47.1 in the HSQC spectrum. […]

SMILES	concentration of Compound I that results in a slightly green color [1]	stability [2]
CN(C)c1c(O)c(C(N)=O)c(O)c(O)c1C[C@H]1C(C(=O)O)=C(O)C2=C(C(=[N+](C)C)C=C(NC(=O)CNC(C)(C)C)C2=O)[C@@H]1O [Compound I]	ca. 0.045	
CN(C)c1cc(NC(=O)CNC(C)(C)C)c(O)c2c1C[C@H]1C[C@H]3[C@H](N(C)C)C(O)=C(C(N)=O)C(=O)[C@@]3(O)C(O)=C1C2=O [tigecycline]		susceptible to oxidative degradation
